Molecular target: T1, human 11βHSD1 enzyme (Homo sapiens, UniProt P28845)
T1 construct: N terminal 6-His tagged full length human 11βHSD1 enzyme; 6-His (N); made in house
Test: 11βHSD1 competitive HTRF assay (conversion of cortisone to cortisol)
Type: biochemical
Settings: for IC50: baculovirus expressed N terminal 6-His tagged full length human 11βHSD1, cortisone 160 nM, 25 minutes at 37° C.; for activity in the 11βHSD1 assay: at 30 μM
Experimental: The conversion of cortisone to the active steroid cortisol by 11βHSD1 oxo-reductase activity, can be measured using a competitive homogeneous time resolved fluorescence assay (HTRF) (CisBio International, R&D, Administration and Europe Office, In Vitro Technologies—HTRF®/Bioassays BP 84175, 30204 Bagnols/Cèze Cedex, France. Cortisol bulk HTRF kit: Cat No. 62CORPEC).
The evaluation of compounds described herein was carried out using a baculovirus expressed N terminal 6-His tagged full length human 11βHSD1 enzyme(*1). The enzyme was purified from a detergent solublised cell lysate, using a copper chelate column. Inhibitors of 11βHSD1 reduce the conversion of cortisone to cortisol, which is identified by an increase in signal, in the above assay.
Compounds to be tested were dissolved in dimethyl sulphoxide (DMSO) to 10 mM and diluted further in assay buffer containing 10% DMSO to 10 fold the final assay concentration. Diluted compounds were then plated into black 384 well plates (Matrix, Hudson N.H., USA).
The assay was carried out in a total volume of 20 μl consisting of cortisone (Sigma, Poole, Dorset, UK, 160 nM), glucose-6-phosphate (Roche Diagnostics, 1 mM), NADPH (Roche Diagnostics, 100 μM), glucose-6-phosphate dehydrogenase (Roche Diagnostics, 12.5 μg/ml), EDTA (Sigma, Poole, Dorset, UK, 1 mM), assay buffer (K2HPO4/KH2PO4, 100 mM) pH 7.5, recombinant 11βHSD1 (1.5 μg/ml) plus test compound. The assay plates were incubated for 25 minutes at 37° C. after which time the reaction was stopped by the addition of 10 μl of 0.5 mM glycerrhetinic acid plus cortisol-XL665. 10 μl of anti-cortisol Cryptate was then added and the plates sealed and incubated for 6 hours at room temperature. Fluorescence at 665 nm and 620 nm was measured and the 665 nm:620 nm ratio calculated using an Envision plate reader.

T1 sequence (P28845 whole entry): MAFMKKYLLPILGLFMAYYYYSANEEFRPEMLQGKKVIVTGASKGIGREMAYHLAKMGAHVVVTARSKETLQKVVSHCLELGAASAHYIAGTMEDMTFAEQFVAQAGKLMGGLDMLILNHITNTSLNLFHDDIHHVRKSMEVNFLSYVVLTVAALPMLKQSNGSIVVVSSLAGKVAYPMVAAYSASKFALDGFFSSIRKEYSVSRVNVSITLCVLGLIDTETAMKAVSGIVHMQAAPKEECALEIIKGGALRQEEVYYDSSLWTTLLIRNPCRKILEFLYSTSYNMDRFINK

SMILES | IC50 [nM] | activity in the 11βHSD1 assay
O=C(NC1CCCCC1)c1cccnc1SCCc1ccccn1 [Example 3, N-Cyclohexyl-2-(2-pyridin-2-ylethylsulfanyl)pyridine-3-carboxamide] | 890 | 
O=C(NC1CCCCC1)c1cccnc1SCCc1ccccc1 [Example 4, N-Cyclohexyl-2-phenethylsulfanyl-pyridine-3-carboxamide] | 27 | 
O=C(NC1CCCCC1)c1ccc(C(F)(F)F)nc1SCCc1ccccc1 [N-cyclohexyl-2-(phenethylsulfanyl)-6-trifluoromethylpyridine-3-carboxamide] |  | did not show activity
O=C(O)c1ccccc1CCSc1ncccc1C(=O)NC1CCCCC1 [N-cyclohexyl-2-[2-(2-carboxyphenyl)ethyl)sulfanyl]pyridine-3-carboxamide] |  | did not show activity

Source: patent US20100022589A1, “PYRIDINE-3-CARBOXAMIDE COMPOUNDS AND THEIR USE FOR INHIBITING 11-BETA-HYDROXYSTEROID DEHYDROGENASE” (priority 2006, published 2010)
